Assay results from patent publication US9359373B1, “Lipophilic N-substituted norcantharimide derivatives and uses thereof” (priority 2014, dated 2016).
Like-named read-outs stand apart in the source and are kept apart here.

How the values were obtained:
HT29 = assay: MTT cell viability, HT29; type: cell-based, human; settings: Mean ± SD, read-out: Growth Inhibition IC50 HT-29
Method: (§1) Cell lines used in the present disclosure include human liver carcinonoma cell line HepG2, human bladder carcinoma cell line BFTC905, human colon carcinoma cell lines HT29 and SW480, and human leukemia cell lines HL60 and Jurkat T, and mouse lymphocytic leukemia cell line L1210. Each cell lines were cultured and maintained in Dulbecco's modified Eagle media (DMEM) or RPMI 1640 medium supplemented with 10% heat inactivated fetal bovine serum (FBS), 1% penicillin/streptomycin, in 5% CO2195% air at 37° C.
(§2) The absorbance of the solution at 540 nm was measured by spectrophotometer. The IC50 values were defined as the drug concentration that inhibit 50% cell growth by setting the viability of untreated cells as 100%. Values were represented as the mean±SD from at least 3 independent experiments.
(§3) Effects of the compounds of formula (I) of this disclosure, specifically, NOC15 and NC 15, on HepG2 cells (liver carcinoma), BFTC905 (bladder carcinoma), HT29 (colon carcinoma), SW480 (colon carcinoma) and HL60 (leukemia) were assessed by cell viability analysis in accordance with procedures described above, in which compound 2, and other known anti-cancer agents including 5-FU, cisplatin and doxorubicin were respectively used as positive controls.

[1] = Body weight of treated animals; type: in vivo, mice; settings: 18 mg/Kg, compared with healthy normal control, FIG. 11
Method: (§4) To inoculate tumor, L1210 cells (1×10^6 cells per injection) were injected either subcutaneously or intraperitoneally to lab animals to generate tumors on day 1. After 7 days, NOC15 or NC15 (diluted in normal saline) was administered intra-peritoneally at a dose of 18 mg/kg every day for 7 days. The average body weight (BW) of the animals was measured daily.
(§5) Mice were inoculated with L1210 tumor cells in accordance with the procedures described in the section of “Materials and Methods.” For in vivo therapy, animals were given 18 mg/Kg NOC15 or NC15 by intra-peritoneal route, for a period of at least 7 days. Tumor size, animal body weight, respective weights of liver and spleen, as well as the white blood cell count of each animal were then measured respectively at the indicated time. Results are depicted in FIGS. 8 to 11, respectively.

Jurkat T cells = assay: Cell cycle distribution by flow cytometry, Jurkat T cells; type: cell-based, human; settings: for percentage of cells in subG1 phase: FIG. 5, FIG. 7
Method: (§6) Cultured cells with or without pre-treatment of the compounds of this invention (i.e., norcantharidin, NOC15, or NC15, 10-60 μM for 48 hours) were harvested from the cultured media and fixed by incuating with 75% iced cold ehtanol and kept at −20° C. until analysis. The fixed cells were then washed with PBS, and treated with […] (200 μg/mL, 500 μL) for about 1.5 hour at 37° C. Precipitated cells were collected by centrifugation and re-suspended in a buffer solution containing propidium iodine (PI) (40 μg/ml) and incubated in the dark for 20 min at 20-25° C. before being subject to flow cytometry analysis, where cell numbers at respective cell cycles were determined.
Cell cycle distribution was determined by flow cytometry as described in the “Materials and Methods” section. Results is depicted in FIG. 5.
In this example, Jurkat T cells were treated with or without NC15 (2.513 μM) for 24 or 48 hours before being subject to cell cycle analysis. Results are depicted in FIG. 7.

HL60 = assay: MTT cell viability, HL60; type: cell-based, human; settings: for IC50: MTT, 48 hours, Mean ± SD, read-out: Growth Inhibition IC50 HL-60; for response of leukemia cell line HL60 to treatment: in words, from Table 1
Method: as §1, §2, §3

HepG2 cells [2] = assay: Cell cycle distribution by flow cytometry (PI), HepG2; type: cell-based, human; settings: 48 hours, FIG. 2
Method: as §6
(§7) HepG2 cells were treated with 10-60 μM of the test compounds for 48 hours, then cell cycle distribution and apoptosis analysis was analyzed by flow cytometry, with the subG1 phase being stained with propidium idoine (PI). Results are illustrated in FIGS. 2 and 3.

HepG2 cells [3] = assay: MTT cell viability, HepG2; type: cell-based, human
Method: as §1, §2, §3
In this example, effects of NOC15 or NC15 on HepG2 cells were assessed by cell viability analysis in accordance with procedures described above, in which compound 2 was used as a positive control.

BFTC905 = assay: MTT cell viability, BFTC905; type: cell-based, human; settings: Mean ± SD, read-out: Growth Inhibition IC50 BFTC905
Method: as §1, §2, §3

L1210 cells = assay: Syngeneic L1210 tumor in vivo therapy; design: species or system DBA/2 mice
Method: The DBA/2 mice (about 7 weeks old, 18-22 g) were obtained from BioLASCO Taiwan Co., Ltd. All mice were housed in specific pathogen-free condition with ad libitum access to water and laboratory chow. A solution of L1210 cells was injected into the subcutaneous tissue to establish a syngeneic tumor. Alternatively, the L1210 cells was injected peritoneally. All animal experiments were performed in accordance with the guidelines of the Animal Welfare Committee of Taipei Veterans General Hospital (Taiwan, R.O.C.).
as §4
After treatment, mice were sacrificed, and their tumors, livers and spleens were harvested and weighted, respectively; and white blood cells (WBC) counts were also measured.
as §5

normal hepatic cells = assay: Ex vivo growth of normal hepatic cells; type: cell-based; settings: at about 8.2 μM
SW480 = assay: MTT cell viability, SW480; type: cell-based, human; settings: Mean ± SD, read-out: Growth Inhibition IC50 SW480
Method: as §1, §2, §3

HepG2 cells [4] = assay: Hoechst 33528 staining, nuclear morphological changes; type: cell-based, human; settings: 40 μM, 48 hours, FIG. 1
Method: Staining with Hoechst 33528 was performed according to the method described previously (Huang et al., Cytotechnology 2009, 59, 201-208). Briefly, cells were treated with 40 μM norcantharidin, NOC15, or NC15 for 48 hours, then washed with PBS saline and stained with Hoechst 33528 (Sigma, St. Louis, Mo., USA) at a final concentration of 10 μg/mL. The slides were examined under a fluorescence microscope. Cells with a small nucleus, a high fluorescence intensity (due to chromatin condensation) or nuclear fragmentation were considered apoptotic.
To further investigate the role of apoptosis in the cytotoxicity of NOC15 and NC15, HepG2 cells were incubated with compound 2, NOC15 and NC15, respectively, for 48 hours; then were stained with Hoechst 33528 and examined by fluorescence microscope for any topical morphological changes.

HepG2 cells [5] = assay: Apoptotic analysis annexin-V/PI flow cytometry; type: cell-based, human; settings: 10-60 μM, 48 hours, FIG. 3
Method: The percentage of apototic cells was determined according to the manufacturer's protocol by using an annexin-V/FITC kit/propidium iodine (PI) flow cytometer. To facilitate the detection of apoptosis, the treated cells were centrifuged for 5 min at a speed of 1,000×g at room temperature, and then resuspended and washed once with 5 mL PBS before being stained with annexin-V/PI (apoptosis detection kit, R&D Systems, Taipei, Taiwan).
as §7

[6] = system: human leukemia cells (Jurkat T cells); assay: Cell viability (CCK-8), PMAI activated leukemia Jurkat T cells model; type: cell-based
Method: (§8) The cell viability assays were performed in 96-well plates. The 100 μl of cell suspensions (NHL or Jurkat T cells, 5×10^3 cells/well, serum-free medium) were inoculated in the wells and the plates were pre-incubated in the incubator for 24 hours (pre-incubated for 22 hours and stimulated with PMA 5 ng/ml plus ionomycin 250 ng/ml for 2 hours in PMAI-treated groups). Then, various concentrations of norcantharidin (0, 2, 4, 15, 30 and 60 μM) or NOC15 (0, 0.25, 0.5, 1, 2 and 4 μM) were added into the culture media in the wells. After 24 hours of incubation, the cell viability of NHL and Jurkat T cells was measured by cell counting kit-8 (CCK-8, Sigma). The half maximal inhibitory concentrations (IC50) of norcantharidin and NOC15 on Jurkat T cells and NHL cells were calculated.
(§9) In this example, a model of phorbol 12-myristate 13-acetate plus ionomycin (PMAI) activated leukemia Jurkat T cells model was employed to investigate the effects of the NOC15 on human leukemia cells (Jurkat T cells) and human lymphoblast cells (NHL).

[7] = system: human lymphoblast cells (NHL); assay: Cell viability (CCK-8), normal lymphoblast cells; type: cell-based; settings: 24 hours (NC15: 24 and 48 hours), FIG. 4, FIG. 6
Method: as §8, §9

[8] = Homo sapiens, HepG2, 24 h, Mean ± SD, read-out: Growth Inhibition On Hepatic Cancer Cells IC50 24 hrs
[9] = Homo sapiens, HepG2, 48 h, MTT, 48 hours, Mean ± SD, read-out: Growth Inhibition IC50 HepG2
[10] = Homo sapiens, HepG2, 48 h, Mean ± SD, read-out: Growth Inhibition On Hepatic Cancer Cells IC50 48 hrs
[11] = Homo sapiens, HepG2, 72 h, Mean ± SD, read-out: Growth Inhibition On Hepatic Cancer Cells IC50 72 hrs
[12] = Homo sapiens, BFTC-905, 48 hours
[13] = MTT, 48 hours, Mean ± SD, read-out: Growth Inhibition IC50 HepG2

SMILES | IC50 (HT29; Homo sapiens, HT-29, 48 hours) | IC50 (HL60; Homo sapiens, HL-60) | response of leukemia cell line HL60 to treatment (HL60) | IC50 (HepG2 cells [3]; [8]) | IC50 (HepG2 cells [3]; [9]) | IC50 (HepG2 cells [3]; [10]) | IC50 (HepG2 cells [3]; [11]) | IC50 (BFTC905; [12]) | IC50 (SW480; Homo sapiens, SW480, 48 hours) | nuclear morphological changes (apoptosis features) (HepG2 cells [4]) | percentage of apoptotic cells / cell death (HepG2 cells [5]) | IC50 (HT29; 48 hours) | IC50 (HL60) | IC50 (HepG2 cells [3]; [13]) | IC50 (SW480; 48 hours) | other results
CC(C)=CCCC(C)=CCCC(C)=CCON1C(=O)C2C3CCC(O3)C2C1=O (stereo not drawn) [Compound 9, N-farnesyloxy-7-oxabicyclo[2.2.1]heptane-2,3-dicarboximide] | 9.7 ± 1.7 µM | 39 ± 1.1 µM | did respond | 10.7 ± 0.2 µM | 8.3 ± 1.3 µM | 8.3 ± 1.3 µM | 8.2 ± 0.6 µM | 11.3 ± 1 µM | 18.5 ± 2.3 µM | Significant morphological features of apotosis | dose-dependent | – | – | – | – | total body weight along the course of treatment [1]: gradually improved the total body weight; percentage of cells in subG1 phase (Jurkat T cells; treated 24 hours (NC15 2.513 μM)): increased; percentage of cells in subG1 phase (Jurkat T cells; treated 48 hours (NC15 2.513 μM)): increased; percentage of cells in G2/M phase (Jurkat T cells; treated 48 hours, FIG. 5C): increased; accumulation of cells in G2/M phase (HepG2 cells [2]; 10-60 μM): inducing the accumulation of cells in G2/M phase; IC50 (HepG2 cells [3]; Homo sapiens, HepG2, hepatic cancerous cells, time not given, read-out: concentration inhibiting ex vivo growth of hepatic cancerous cells for about 50%): ~8.2 µM; weight of liver (L1210 cells; IP-inoculated tumor, 18 mg/kg i.p., FIG. 9B): improved significantly; weight of spleen (L1210 cells; IP-inoculated tumor, 18 mg/kg i.p., FIG. 9C): improved significantly; increase in life span (L1210 cells; SC-inoculated tumors, 18 mg/kg i.p. daily, FIG. 8A): about 40%; weight of s.c. tumor (L1210 cells; SC-inoculated, 18 mg/kg i.p., FIG. 9A): Significant reduction; white blood cell (WBC) counts (L1210 cells; day 14, SC- or IP-injected L1210, 18 mg/kg i.p., FIG. 10): significant reductions; effect on normal hepatic cells (normal hepatic cells): un-affected
O=C1OC(=O)C2C3CCC(O3)C12 (stereo not drawn) [Compound 2, 7-oxabicyclo[2.2.1]heptane-2,3-dicarboxylic anhydride, reference compound] | 19.5 ± 0.2 µM | > 100 µM | – | 48 ± 0.7 µM | 42 ± 1.8 µM | 42 ± 1.8 µM | 22.8 ± 0.6 µM | 18.9 ± 0.3 µM | 49.1 ± 8.4 µM | Significant morphological features of apotosis | cytoxic effect was only observed when high concentration of compound 2 was used | – | – | – | – | fraction of apoptotic cells (subG1) (HepG2 cells [2]; 10 μM): only a small fraction of apoptotic cells; fraction of apoptotic cells (subG1) (HepG2 cells [2]; 20 μM): 1.6%; fraction of apoptotic cells (subG1) (HepG2 cells [2]; 60 μM): 16.7%; cytotoxicity to leukemia Jurkat T cells ([6]; 24 hours (NC15: 24 and 48 hours), FIG. 4, FIG. 6): toxic; percentage of viable cells if pre-treated with PMA ([6]; PMA plus ionomycin pre-treatment, FIG. 4): increased slightly; cytotoxicity to normal lymphatic/lymphoblast cells (NHL) [7]: did not possess significant cytotoxicity
COc1cccc2c1C(=O)c1c(O)c3c(c(O)c1C2=O)C[C@@](O)(C(=O)CO)C[C@@H]3O[C@H]1C[C@H](N)[C@H](O)[C@H](C)O1 [Doxorubicin, doxorubicin] | 1.7 ± 0.2 µM | 14.3 ± 0.9 µM | – | – | 0.3 µM | – | – | – | 0.5 ± 0.1 µM | – | – | – | – | – | – | –
O=c1[nH]cc(F)c(=O)[nH]1 [Compound 5-FU, 5-FU] | – | – | did not respond well | – | – | – | – | – | – | – | – | > 100 µM | > 100 µM | 40.2 ± 7.6 µM | 32.7 ± 8.3 µM | IC50 (BFTC905; 48 hours): > 100 µM
N.N.[Cl][Pt][Cl] [Cisplatin, cisplatin] | – | – | did not respond well | – | – | – | – | – | – | – | – | 24.1 ± 0.1 µM | > 100 µM | 36.1 ± 3.1 µM | 40.7 ± 1.2 µM | –
